This is an account of results in PubChem BioAssay (NCI).

Among the test systems are SW-620 colon; LOX IMVI melanoma; SK-OV-3 ovarian; SR leukemia; MCF7 breast; NCI-H522 lung; RPMI-8226 leukemia; OVCAR-5 ovarian; SK-MEL-2 melanoma; NCI/ADR-RES ovarian.
What all share (test): DTP human tumour cell line panel, 48 h

Each structure is given as a SMILES string.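 Exposure lasted 48 hours, with cells grown in 96-well plates and compounds tested at five concentrations. The concentration for 50% growth inhibition is given as GI50. TGI: concentration producing complete growth inhibition.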

As to `O=C(Nc1ccc(Cl)cc1)c1cc(-c2ccc(Cl)cc2)c2sc(=O)[nH]c2n1`, the GI50 was 2.9 µM in the test with SW-620 colon; 2.88 µM with LOX IMVI melanoma; 2.08 µM with SK-OV-3 ovarian; 3.63 µM in the test on SR leukemia; 1.78 µM in the test on MCF7 breast; 0.408 µM in the test on NCI-H522 lung. Moreover, the GI50 was 1.21 µM with RPMI-8226 leukemia, 3.41 µM in the test with OVCAR-5 ovarian, 1.18 µM in the test on SK-MEL-2 melanoma and 1.98 µM with NCI/ADR-RES ovarian. In addition, the TGI was 15.2 µM in the test with SW-620 colon; 10.6 µM in the test on LOX IMVI melanoma; 7.47 µM with SK-OV-3 ovarian; greater than 100 µM in the test with SR leukemia; 9.26 µM in the test with MCF7 breast; 3.12 µM in the test with NCI-H522 lung. In addition, the TGI in the test on RPMI-8226 leukemia is 14.2 µM; in the test on OVCAR-5 ovarian, 29.3 µM; with SK-MEL-2 melanoma, 3.99 µM; in the test with NCI/ADR-RES ovarian, 7.61 µM.

As for `Cc1ccc2c(c1)NC(=O)CC(c1ccccc1)=N2`, the total growth inhibition concentration (TGI) in the test with SW-620 colon is greater than 100 µM; in the test on LOX IMVI melanoma it was greater than 100 µM; with SK-OV-3 ovarian, greater than 100 µM; with SR leukemia, 64.2 µM; with MCF7 breast, greater than 100 µM; in the test with NCI-H522 lung it was greater than 100 µM. Also, the TGI with RPMI-8226 leukemia was 76.7 µM; in the test on OVCAR-5 ovarian, greater than 100 µM; with SK-MEL-2 melanoma, greater than 100 µM; in the test with NCI/ADR-RES ovarian, greater than 100 µM.

For `Cc1ccc2c(O)c(O)cc(NC(C)CCCN)c2n1` (stereo not given), the GI50 with SW-620 colon is 10.2 µM; in the test with LOX IMVI melanoma, 4.55 µM; in the test on SK-OV-3 ovarian, greater than 78.6 µM; in the test on SR leukemia it was 30.5 µM; in the test with MCF7 breast, 2.65 µM; in the test with NCI-H522 lung, 3.15 µM. In addition, the GI50 in the test with RPMI-8226 leukemia was 8.89 µM; in the test on OVCAR-5 ovarian it was 7.36 µM; in the test on SK-MEL-2 melanoma, greater than 45.9 µM; in the test with NCI/ADR-RES ovarian it was greater than 66.9 µM. The TGI with SW-620 colon is 51.3 µM; with LOX IMVI melanoma, 25.4 µM; in the test on SK-OV-3 ovarian, greater than 100 µM; in the test on SR leukemia, 79.3 µM; in the test on MCF7 breast, 9.82 µM; in the test with NCI-H522 lung it was 9.87 µM. Also, the TGI was greater than 53.2 µM with RPMI-8226 leukemia, 25.2 µM with OVCAR-5 ovarian, greater than 91.9 µM with SK-MEL-2 melanoma and greater than 100 µM with NCI/ADR-RES ovarian.

Take `COc1cccc(/C=C/c2cnc3ccccc3n2)c1OC`: the TGI is greater than 100 µM in the test on SW-620 colon; greater than 100 µM in the test on LOX IMVI melanoma; greater than 100 µM with SK-OV-3 ovarian; greater than 100 µM in the test with SR leukemia; greater than 100 µM with MCF7 breast; 53.5 µM with NCI-H522 lung. The TGI in the test on RPMI-8226 leukemia was greater than 100 µM; in the test with OVCAR-5 ovarian it was greater than 100 µM; in the test with SK-MEL-2 melanoma it was 98.5 µM; in the test with NCI/ADR-RES ovarian it was 60.1 µM.

Take `Cc1cc(C)c(O)c(CN(C)Cc2cc(Cl)cc(Cl)c2O)c1`: the GI50 in the test with SW-620 colon is 3.71 µM; in the test with LOX IMVI melanoma, 4.06 µM; in the test on SK-OV-3 ovarian, 6.48 µM; in the test with SR leukemia, 3.69 µM; with MCF7 breast, 3.28 µM; in the test on NCI-H522 lung, 2.22 µM. The GI50 is 3.12 µM in the test on RPMI-8226 leukemia, 6.12 µM in the test on OVCAR-5 ovarian, 6.52 µM with SK-MEL-2 melanoma and 2.89 µM in the test with NCI/ADR-RES ovarian. Also, the TGI in the test on SW-620 colon stood at 14.3 µM; in the test with LOX IMVI melanoma it was 17.1 µM; in the test on SK-OV-3 ovarian it was 33 µM; with SR leukemia it was 24.5 µM; in the test with MCF7 breast, 14.3 µM; in the test with NCI-H522 lung it was 6.14 µM. Besides, the TGI in the test with RPMI-8226 leukemia came to 23.2 µM; in the test with OVCAR-5 ovarian, 20.5 µM; in the test with SK-MEL-2 melanoma, 19.6 µM; in the test on NCI/ADR-RES ovarian, 12.5 µM.

In the case of `N#CCc1ncc(-c2ccc(C(F)(F)F)cc2)c(NC2CCCCCC2)n1`, the GI50 with SW-620 colon, with LOX IMVI melanoma, in the test on SK-OV-3 ovarian, in the test on SR leukemia, with MCF7 breast and with NCI-H522 lung was greater than 10 µM each time. In addition, the GI50 in the test on RPMI-8226 leukemia, with OVCAR-5 ovarian, with SK-MEL-2 melanoma and with NCI/ADR-RES ovarian was greater than 10 µM each time. Besides, the TGI with SW-620 colon, in the test with LOX IMVI melanoma, with SK-OV-3 ovarian, in the test on SR leukemia, with MCF7 breast and in the test on NCI-H522 lung was greater than 10 µM in each case. In addition, the total growth inhibition concentration (TGI) in the test with RPMI-8226 leukemia, in the test on OVCAR-5 ovarian, with SK-MEL-2 melanoma and in the test with NCI/ADR-RES ovarian was greater than 10 µM in each case.

With `O=C(c1ccco1)c1c(C(F)(F)F)n([O-])c2ccccc2[n+]1=O`, the GI50 with SW-620 colon is 0.859 µM; with LOX IMVI melanoma it was 0.548 µM; in the test with SK-OV-3 ovarian, 6.69 µM; in the test with SR leukemia, 0.0737 µM; in the test with MCF7 breast, 0.458 µM; in the test on NCI-H522 lung, 0.468 µM. The 50% growth inhibitory concentration (GI50) is 0.227 µM with RPMI-8226 leukemia, 3.68 µM in the test on OVCAR-5 ovarian, 1.48 µM with SK-MEL-2 melanoma and 0.879 µM with NCI/ADR-RES ovarian. In addition, the TGI in the test with SW-620 colon worked out at 20.5 µM; in the test on LOX IMVI melanoma, 2.1 µM; with SK-OV-3 ovarian, 21 µM; with SR leukemia, 0.523 µM; with MCF7 breast, 7.36 µM; in the test on NCI-H522 lung it was 1.98 µM. The TGI with RPMI-8226 leukemia was 1.27 µM; with OVCAR-5 ovarian, 13.4 µM; in the test on SK-MEL-2 melanoma it was 6.19 µM; in the test with NCI/ADR-RES ovarian, 12.7 µM.
